As usually defined, the IC50 is the concentration that inhibits the measured activity by half. Low readings indicate higher potency, high ones lower potency.

Values after ≈ are worked out from the molar mass of the structure shown. Active and inactive are the calls of the source. No cut-off for these calls is given here.

Holding throughout (assay type): functional, cell-based
In assay [1] the test system is IMR90 EIA. Kind of assay: Activation of Caspase 3 and 7 in IMR90 EIA cells at 3 ug/ml and irradiation of 15 J/cm2 for 8 hrs. The conditions noted are these: Homo sapiens.
Assay [2] deals with K562. Put plainly: Cytotoxicity against human chronic myelogenous leukemia K562 cell line without light irradiation by MTT assay at 3-12 ug/ml.
In assay [3] the test system is IMR-90. Put plainly: Effect on apoptotic fragmentation in IMR90 E1A cells at 3 ug/ml and irradiation at 8 mW/cm2 for 60 min. The conditions noted are these: Homo sapiens.
Assay [4] deals with PANC-1. Put plainly: Cytotoxicity against human pancreatic adenocarcinomas Panc1 cell line irradiated with white light at the fluence of 15 J/cm2. The settings on record: PANC-1, light or radiation study.
The subject of assay [5] is HeLa. Kind of assay: Cytotoxicity against human cervix adenocarcinomas HeLa cell line irradiated with white light at the fluence of 30 J/cm2. The settings on record: light or radiation study.
Assay [6] has as its system K562. Kind of assay: Cytotoxicity against human chronic myelogenous leukemia K562 cell line irradiated with white light at the fluence of 15 J/cm2. The conditions noted are these: K562, light or radiation study.
Assay [7] relates to HeLa. Put plainly: Cytotoxicity against human cervix adenocarcinomas HeLa cell line irradiated with white light at the fluence of 15 J/cm2. The settings on record: light or radiation study.
Assay [8] deals with K562. Put plainly: Effect on apoptotic fragmentation in K562 cells at 3 ug/ml and irradiation at 8 mW/cm2 for 60 min. The settings on record: Homo sapiens.
The test system of assay [9] is K562. Kind of assay: Cytotoxicity against human chronic myelogenous leukemia K562 cell line irradiated with white light at the fluence of 30 J/cm2. The settings on record: K562, light or radiation study.
Assay [10] relates to HeLa. Put plainly: Internalization in cytoplasm in HeLa cells at 3 ug/ml for 24 hr by confocal microscopy after propidium iodide staining. The settings on record: Homo sapiens.
Assay [11] relates to IMR-90. Put plainly: Cytotoxicity against human transformed fibroblast IMR90 E1A cell line without light irradiation by MTT assay at 3-12 ug/ml. For orientation: Tetrazolium assays rely on reduction of a dye to a coloured formazan, in cell work by metabolically active cells.
Assay [12] concerns PANC-1. Kind of assay: Cytotoxicity against human pancreatic adenocarcinomas Panc1 cell line irradiated with white light at the fluence of 30 J/cm2. The settings on record: PANC-1, light or radiation study.
Assay [13] deals with K562. Put plainly: Activation of Caspase 3 and 7 in K562 cells at 3 ug/ml and irradiation of 15 J/cm2 for 8 hrs. The conditions noted are these: Homo sapiens.
The test system of assay [14] is IMR-90. Kind of assay: Cytotoxicity against human transformed fibroblast IMR90 E1A cell line irradiated with white light at the fluence of 30 J/cm2. The settings on record: IMR-90, light or radiation study.
Assay [15] relates to IMR-90. Put plainly: Cytotoxicity against human transformed fibroblast IMR90 E1A cell line irradiated with white light at the fluence of 15 J/cm2. The conditions noted are these: IMR-90, light or radiation study.

As for `CCC1=C(C)C2=NC/1=C\c1[nH]c(c(CC)c1CC)/C=c1\[nH]/c(c(C)c1CC)=C\C1=NC(C=C1)/C(c1ccccc1)=c1/cc/c([nH]1)=C/2` (stereo not given), the result in [1], in assay [3], in [8], in assay [10] and in assay [13] was Active. For the same molecule, the Activity entry in assay [2] and in assay [11] was “Toxic” in each case. Also, the IC50 in [4] was found to be 9.7 µg/mL (≈ 16 µM); in [5], 2.6 µg/mL (≈ 4.29 µM); in assay [6] it was 2 µg/mL (≈ 3.3 µM); in assay [7], 4.8 µg/mL (≈ 7.92 µM); in [9], 1.5 µg/mL (≈ 2.48 µM); in [12], 3.9 µg/mL (≈ 6.44 µM). In addition, the results for the IC50 in assay [14] and in assay [15] were 2.3 µg/mL (≈ 3.8 µM) and 4 µg/mL (≈ 6.6 µM), respectively.

As to `CCC1=C(C)C2=NC/1=C\c1[nH]c(c(CC)c1CC)/C=c1\[nH]/c(c(C)c1CC)=C\c1ccc([nH]1)/C(c1ccccc1)=c1/cc/c([nH]1)=C/2`, the result in [1], in assay [3], in [8], in [10] and in assay [13] was Active. For the same molecule, the Activity result in [2] and in assay [11] was “Toxic” in each case. Further, the IC50 amounted to 9.8 µg/mL (≈ 16.2 µM) in assay [4]; 3.8 µg/mL (≈ 6.27 µM) in assay [5]; 3.6 µg/mL (≈ 5.94 µM) in assay [6]; 5.8 µg/mL (≈ 9.57 µM) in [7]; 2.9 µg/mL (≈ 4.79 µM) in assay [9]; 4.6 µg/mL (≈ 7.59 µM) in assay [12]. Further, the IC50 in assay [14] stood at 3.2 µg/mL (≈ 5.28 µM); in assay [15], 4.2 µg/mL (≈ 6.93 µM).

Source of the values: ChEMBL document CHEMBL1148602, “Synthesis and biological evaluation of new pentaphyrin macrocycles for photodynamic therapy” (J Med Chem, 2006).
